From US20240415819A1, “MACROCYCLIC COMPOUNDS AS PROTEASOME SUBUNIT BETA TYPE-5 INHIBITORS” (Lead Discovery Center GmbH, priority 2021, published 2024)
pIC50: −log10 of the molar value. Where two headings read alike, the source gives them in different places.

Tests used:
[1] = target: T1, β5 subunit of the human constitutive proteasome (CPS) (Homo sapiens, UniProt P28074); assay: β5 inhibition assay, human constitutive proteasome (Suc-LLVY-AMC); assay type: biochemical; details: IC50 class, Suc-LLVY-AMC substrate
T1 construct: purchased Boston Biochem E-360
Method: The enzymatic activity of the β5 subunit of the human constitutive proteasome (CPS) is analyzed. In another assay, which differs from the assay of the human constitutive proteasome only in using the human immunoproteasome (IPS) the enzymatic activity of the β5 subunit of the human immunoproteasome (IPS) is analyzed. […] Inhibition is indicated as IC50 [nM] (“-”=not measured).

[2] = target: T2, β5 subunit of the human immunoproteasome (IPS) (Homo sapiens, UniProt P28062); assay: β5 inhibition assay, human immunoproteasome (Suc-LLVY-AMC); assay type: biochemical; details: IC50 class, Suc-LLVY-AMC substrate
T2 construct: purchased Boston Biochem E-370
In short: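 β5 activity is read as liberated AMC fluorescence (355/460 nm) after 4 h dark reaction at RT with 22.6 μM Suc-LLVY-AMC, stopped by 1 μM bortezomib. Beforehand, 1 nM human IPS and compound sat 10 min at RT in HEPES pH 7.5 buffer containing NaCl, 0.02% SDS and DTT.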

[3] = system: A549 (human lung carcinoma cell line); assay: Glo assay of A549 cells (Table 3; ProteasomeGlo plating scheme); assay type: cell-based; details: Homo sapiens; for pIC50: A549 cells, read-out: PGLo A549
In short: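 Compound treatment lasts 105 minutes at 37° C. under 5% CO2. Suc-LLVY-Glo substrate premixed with detection reagent (60 min at room temperature) is then added directly to the cells, and luminescence after 10-15 min in the dark gives the IC50 in nM.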

[4] = system: Hs 746T (human gastric carcinoma cell line); assay: 48 hr CTG viability assay, Hs 746T; assay type: cell-based; details: Hs746T; for pIC50: 48 hr CTG, read-out: Hs 746T IC50
In short: (§1)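 Growth inhibition by compound over 48 h; IC50 (nM) derived from duplicate CellTiter-Glo luminescence readings across 0.0015–10 uM.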

[5] = system: MM1 S (B lymphoblast cell line); assay: 48 hr CTG viability assay, MM1S; assay type: cell-based; details: Homo sapiens; for pIC50: 48 hr CTG, read-out: MM1S IC50
In short: as §1

[6] = system: RPMI 8226 (B lymphocyte cell line, multiple myeloma); assay: 48 hr CTG viability assay, RPMI 8226; assay type: cell-based; details: Homo sapiens; for pIC50: RPMI-8226, 48 hr CTG, read-out: RPMI-8226 IC50
In short: as §1

| pIC50 [1] | pIC50 [2] | pIC50 [3] | pIC50 [4] | pIC50 [5] | pIC50 [6] | SMILES | IC50 ([3]; A549, read-out: PGLo A549 [nM]) | IC50 ([4]; 48 h, read-out: Hs 746T IC50 [nM]) | IC50 ([5]; 48 h, read-out: MM1S IC50 [nM]) | IC50 ([6]; RPMI-8226, 48 h, read-out: RPMI-8226 IC50 [nM]) |
| --- | --- | --- | --- | --- | --- | --- | --- | --- | --- | --- |
| > 7.00 | > 7.00 | > 7.00 | > 7.00 | > 7.00 | > 7.00 | Cc1ccc2cc1CNC(=O)[C@H](CCc1ccccc1)NC(=O)[C@@H](NC(=O)Cc1ccccc1)CCNC(=O)N1CCCC(CCO2)C1 (stereo partly drawn) [Compound 653, N-((9S,12S)-5^4-methyl-8,11,16-trioxo-9-phenethyl-4-oxa-7,10,15-triaza-1(3,1)-piperidina-5(1,3)-benzenacyclohexadecaphane-12-yl)-2-phenylacetamide] | – | – | – | – |
| > 7.00 | > 7.00 | > 7.00 | 6.30 to 7.00 | > 7.00 | > 7.00 | Cc1ccc2cc1CNC(=O)[C@H](CCc1ccccc1)NC(=O)[C@@H](NC1CC3CCC1C3)CC(=O)N1CCCC(CCO2)C1 (stereo partly drawn) [Compound 712, (9S,12S)-12-(bicyclo[2.2.1]heptan-2-ylamino)-5^4-methyl-9-phenethyl-4-oxa-7,10-diaza-1(3,1)-piperidina-5(1,3)-benzenacyclotetradecaphane-8,11,14-trione] | – | – | – | – |
| > 7.00 | > 7.00 | > 7.00 | > 7.00 | > 7.00 | > 7.00 | Cc1ccc2cc1CNC(=O)[C@H](CCc1ccccc1)NC(=O)[C@@H](NC(=O)NC1CCCCC1)CC(=O)N1CCCC(CCO2)C1 (stereo partly drawn) [Compound 593, 1-cyclohexyl-3-((9S,12S)-5^4-methyl-8,11,14-trioxo-9-phenethyl-4-oxa-7,10-diaza-1(3,1)-piperidina-5(1,3)-benzenacyclotetradecaphane-12-yl)urea] | – | – | – | – |
| > 7.00 | > 7.00 | > 7.00 | > 7.00 | > 7.00 | > 7.00 | CC(=O)N[C@H]1CC(=O)N2CCCC(CCOc3ccc(C)c(c3)CNC(=O)[C@H](C3Cc4ccccc4C3)NC1=O)C2 (stereo partly drawn) [Compound 685, N-((9S,12S)-9-(2,3-dihydro-1H-inden-2-yl)-5^4-methyl-8,11,14-trioxo-4-oxa-7,10-diaza-1(3,1)-piperidina-5(1,3)-benzenacyclotetradecaphane-12-yl)acetamide] | – | – | – | – |
| > 7.00 | > 7.00 | > 7.00 | > 7.00 | > 7.00 | > 7.00 | Cc1ccc2cc1CNC(=O)[C@H](CCc1ccccc1)NC(=O)[C@@H](NC(=O)CCNC(=O)C1CC3CCC1O3)CC(=O)N1CCCC(CCO2)C1 (stereo partly drawn) [Compound 701, N-(3-(((9S,12S)-5^4-methyl-8,11,14-trioxo-9-phenethyl-4-oxa-7,10-diaza-1(3,1)-piperidina-5(1,3)-benzenacyclotetradecaphane-12-yl)amino)-3-oxopropyl)-7-oxabicyclo[2.2.1]heptane-2-carboxamide] | – | – | – | – |
| > 7.00 | > 7.00 | > 7.00 | > 7.00 | > 7.00 | > 7.00 | Cc1ccc2cc1CNC(=O)[C@H](CCc1ccccc1)NC(=O)[C@@H](NC(=O)CCN1CCC3(CCOC3)C1)CC(=O)N1CCCC(CCO2)C1 (stereo partly drawn) [Compound 640, N-((9S,12S)-5^4-methyl-8,11,14-trioxo-9-phenethyl-4-oxa-7,10-diaza-1(3,1)-piperidina-5(1,3)-benzenacyclotetradecaphane-12-yl)-3-(2-oxa-7-azaspiro[4.4]nonan-7-yl)propanamide] | – | – | – | – |
| > 7.00 | > 7.00 | > 7.00 | 6.30 to 7.00 | > 7.00 | > 7.00 | Cc1ccc2cc1CNC(=O)[C@H](CCc1ccccc1)NC(=O)[C@@H](NCC(F)(F)F)CC(=O)N1CCCC(CCO2)C1 (stereo partly drawn) [Compound 709, (9S,12S)-5^4-methyl-9-phenethyl-12-((2,2,2-trifluoroethyl)amino)-4-oxa-7,10-diaza-1(3,1)-piperidina-5(1,3)-benzenacyclotetradecaphane-8,11,14-trione] | – | – | – | – |
| > 7.00 | > 7.00 | > 7.00 | > 7.00 | > 7.00 | > 7.00 | Cc1ccc2cc1CNC(=O)[C@H](CCc1ccccc1)NC(=O)[C@@H](NC(=O)CCN[C@@H]1C[C@H]3CC[C@@H]1C3)CC(=O)N1CCCC(CCO2)C1 [Compound 695, 3-(((1R,2R,4S)-bicyclo[2.2.1]heptan-2-yl)amino)-N-((9S,12S)-5^4-methyl-8,11,14-trioxo-9-phenethyl-4-oxa-7,10-diaza-1(3,1)-piperidina-5(1,3)-benzenacyclotetradecaphane-12-yl)propanamide] | – | – | – | – |
| > 7.00 | > 7.00 | > 7.00 | 6.00 to 6.30 | 6.30 to 7.00 | 6.30 to 7.00 | Cc1ccc2cc1CNC(=O)[C@H](CCc1ccccc1)NC(=O)[C@@H](NC(=O)CCNC1CC3(COC3)C1)CC(=O)N1CCCC(CCO2)C1 (stereo partly drawn) [Compound 720, 3-((2-oxaspiro[3.3]heptan-6-yl)amino)-N-((9S,12S)-5^4-methyl-8,11,14-trioxo-9-phenethyl-4-oxa-7,10-diaza-1(3,1)-piperidina-5(1,3)-benzenacyclotetradecaphane-12-yl)propanamide] | – | – | – | – |
| > 7.00 | > 7.00 | > 7.00 | > 7.00 | > 7.00 | > 7.00 | Cc1ccc2cc1CNC(=O)[C@H](CCc1ccccc1)NC(=O)[C@@H](NC(=O)CCN1CC3(CCC3)C1)CC(=O)N1CCCC(CCO2)C1 (stereo partly drawn) [Compound 659, N-((9S,12S)-5^4-methyl-8,11,14-trioxo-9-phenethyl-4-oxa-7,10-diaza-1(3,1)-piperidina-5(1,3)-benzenacyclotetradecaphane-12-yl)-3-(2-azaspiro[3.3]heptan-2-yl)propanamide] | – | – | – | – |
| > 7.00 | > 7.00 | > 7.00 | > 7.00 | > 7.00 | > 7.00 | Cc1ccc2cc1CNC(=O)[C@H](CCc1ccccc1)NC(=O)[C@@H](NC(=O)CCOCCCC1CC1)CC(=O)N1CCCC(CCO2)C1 (stereo partly drawn) [Compound 626, 3-(3-cyclopropylpropoxy)-N-((9S,12S)-5^4-methyl-8,11,14-trioxo-9-phenethyl-4-oxa-7,10-diaza-1(3,1)-piperidina-5(1,3)-benzenacyclotetradecaphane-12-yl)propanamide] | – | – | – | – |
| > 7.00 | > 7.00 | > 7.00 | > 7.00 | > 7.00 | > 7.00 | Cc1ccc2cc1CNC(=O)[C@H](CCc1ccccc1)NC(=O)[C@@H](NC(=O)CCNCCC1CCCC1)CC(=O)N1CCCC(CCO2)C1 (stereo partly drawn) [Compound 700, 3-((2-cyclopentylethyl)amino)-N-((9S,12S)-5^4-methyl-8,11,14-trioxo-9-phenethyl-4-oxa-7,10-diaza-1(3,1)-piperidina-5(1,3)-benzenacyclotetradecaphane-12-yl)propanamide] | – | – | – | – |
| > 7.00 | > 7.00 | > 7.00 | > 7.00 | > 7.00 | > 7.00 | COc1ccccc1COCCC(=O)N[C@H]1CC(=O)N2CCCC(CCOc3ccc(C)c(c3)CNC(=O)[C@H](CCc3ccccc3)NC1=O)C2 (stereo partly drawn) [Compound 619, 3-((2-methoxybenzyl)oxy)-N-((9S,12S)-5^4-methyl-8,11,14-trioxo-9-phenethyl-4-oxa-7,10-diaza-1(3,1)-piperidina-5(1,3)-benzenacyclotetradecaphane-12-yl)propanamide] | – | – | – | – |

| SMILES | pIC50 [1] | pIC50 [2] | pIC50 [3] | pIC50 [4] | pIC50 [5] | pIC50 [6] | IC50 ([3]; A549, read-out: PGLo A549 [nM]) | IC50 ([4]; 48 h, read-out: Hs 746T IC50 [nM]) | IC50 ([5]; 48 h, read-out: MM1S IC50 [nM]) | IC50 ([6]; RPMI-8226, 48 h, read-out: RPMI-8226 IC50 [nM]) |
| --- | --- | --- | --- | --- | --- | --- | --- | --- | --- | --- |
| Cc1ccc2cc1CNC(=O)[C@H](CCc1ccccc1)NC(=O)[C@@H](NC(=O)CCNC(=O)c1cccc(OCC(C)C)c1)CC(=O)N1CCCC(CCO2)C1 (stereo partly drawn) [Compound 651, 3-isobutoxy-N-(3-(((9S,12S)-5^4-methyl-8,11,14-trioxo-9-phenethyl-4-oxa-7,10-diaza-1(3,1)-piperidina-5(1,3)-benzenacyclotetradecaphane-12-yl)amino)-3-oxopropyl)benzamide] | > 7.00 | > 7.00 | > 7.00 | > 7.00 | > 7.00 | > 7.00 | – | – | – | – |
| Cc1ccc2cc1CNC(=O)[C@H](CCc1ccccc1)NC(=O)[C@@H](NC(=O)CCN1CCC1)CC(=O)N1CCCC(CCO2)C1 (stereo partly drawn) [Compound 702, 3-(azetidin-1-yl)-N-((9S,12S)-5^4-methyl-8,11,14-trioxo-9-phenethyl-4-oxa-7,10-diaza-1(3,1)-piperidina-5(1,3)-benzenacyclotetradecaphane-12-yl)propanamide] | > 7.00 | > 7.00 | – | – | – | – | < 100 nM | < 100 nM | < 100 nM | < 100 nM |
